How the values were obtained:
[1] = test system: TXNIP and TNFRSF21 expression; assay: qRT-PCR of H3K27me3-enriched genes; assay type: cell-based, human; conditions: 72 hours
Protocol: RNA (2.8 μg) was reverse transcribed with MultiScribe Reverse Transcriptase (Applied BioSystems) according to the manufacturer's recommendations. The resulting cDNA was diluted and used along with TaqMan gene expression assays (Applied Biosystems; GAPDH, Hs03929097_g1; TNFRSF21, Hs00205419_m1; TXNIP, Hs00197750_m1). TaqMan Gene Expression Master Mix (Applied BioSystems), and a ViiA 7 Real-Time PCR System (Applied BioSystems) according to the manufacturer's recommendations to quantify gene expression.

KARPAS-422 xenografts = assay: Subcutaneous tumor xenograft efficacy study; assay type: in vivo, mice; conditions: for tumor response upon cessation of dosing / tumor growth: KARPAS-422 xenografts
Protocol: (§1) Biochemical assays utilized the 5-member PRC2 complex (human Flag-EZH2, EED, SUZ12, AEBP2, RbAp48) containing either WT or mutant EZH2, [^3H-]SAM and the indicated peptide substrate; reactions were incubated for 30 minutes. Global histone modification levels were determined by ELISA or western blot methods using antibodies specific for total histone H3, H3K27me1, H3K27me2, or H3K27me3. Cell proliferation and Caspase-3/7 activity were assessed using CellTiter-Glo and Caspase-Glo 3/7 (Promega), respectively. Gene expression profiling was conducted using Affymetrix Human Genome U133 Plus 2.0 microarrays. Differentially-expressed probe sets were determined by fitting the data to a linear model using the limma statistical package (http://www.bioconductor.org) and carrying out pair-wise contrasts of treated versus control. Significant probe sets were filtered for detection (log2 signal threshold of 8), an average fold-change >2 or <−2, or >1.5 or <−1.5, where indicated, with p-values adjusted for multiple testing correction by FDR (Benjamini Hochberg)<0.1. H3K27me3 ChIP reads were aligned using Bowtie (56). H3K27me3 enrichment peaks were identified using SICER (57) with optimized parameters. A custom PERL script was utilized to quantify the average basal H3K27me3 ChIP-seq tag density across gene sets. All in vivo studies were conducted after review by the Institutional Animal Care and Use Committee at GSK and in accordance with the GSK Policy on the Care, Welfare and Treatment of Laboratory Animals. GSK126 and vehicle were administered to mice intraperitoneally. Two-tailed t-tests were conducted assuming two samples of equal variance.
(§2) All studies were conducted after review by the Institutional Animal Care and Use Committee at GSK and in accordance with the GSK Policy on the Care, Welfare and Treatment of Laboratory Animals. […] Pfeiffer or KARPAS-422 cells (1×10^7) in 100% matrigel (BD Biosciences) were implanted subcutaneously in female beige SCID mice. Tumors were measured with calipers, block randomized according to tumor size into treatment groups. […] Mice were weighed and tumors measured with calipers twice weekly. For mouse pharmacokinetic studies, tumor and blood samples were harvested from euthanized mice at the indicated time. […] For pharmacodynamic studies, a portion of each tumor was frozen for H3K27me3/H3 ELISAs or placed in RNAlater (Ambion) for RNA isolation. For peripheral blood analyses, blood was harvested via cardiac puncture from euthanized, immunocompetent CD-1 mice (3 mice/group) on day 18. Blood was immediately placed into a Microtainer EDTA tube (BD) and gently mixed by inverting. A complete blood count analysis was conducted using the Advia 2120 hematology analyzer (Siemens Medical Solutions) using multi-species software as per manufacturer's instructions.

Pfeiffer xenografts = assay: Subcutaneous tumor xenograft efficacy study; assay type: in vivo, mice; conditions: daily 50 mg/kg, intraperitoneal
Protocol: as §1, §2

Structure (SMILES): CC[C@H](C)n1cc(C)c2c(C(=O)NCc3c(C)cc(C)[nH]c3=O)cc(-c3ccc(N4CCNCC4)nc3)cc21 [GSK126]
- lowest concentration with dose-responsive increases in gene expression ([1]; Pfeiffer and KARPAS-422, two H3K27me3-enriched genes): 25 nM
- gene expression changes (qRT-PCR) ([1]; Toledo, up to 1 μM GSK126): no transcriptional changes
- tumor growth inhibition (KARPAS-422 xenografts; KARPAS-422 xenografts with large tumors, intermittent dosing, weekly or with 1 week drug holiday, all schedules): 91-100%
- tumor response upon cessation of dosing (KARPAS-422 xenografts; 50 mg/kg QD group): tumor stasis
- tumor response upon cessation of dosing (KARPAS-422 xenografts; 150 mg/kg QD group): complete tumor eradication
- tumor response upon cessation of dosing (KARPAS-422 xenografts; 300 mg/kg twice/week group): complete tumor eradication
- tumor growth (KARPAS-422 xenografts; daily 50 mg/kg, intraperitoneal): complete tumor growth inhibition
- tumor growth (KARPAS-422 xenografts; higher dosing regimens): marked tumor regression
- survival of mice (KARPAS-422 xenografts; mice bearing KARPAS-422 tumors): statistically significant increased survival
- tumor growth (Pfeiffer xenografts): complete tumor growth inhibition

From patent publication US20170348306A1, “METHODS OF TREATING CANCER” (GLAXOSMITHKLINE LLC, priority 2011, published 2017)
